Source: US20170121683A1, “ARYL HYDROCARBON RECEPTOR DISRUPTION AND ENHANCEMENT” (priority 2015, published 2017)

Assays:
[1] = tested on: non-adherent hematopoietic fractions of differentiating hESC-derived cells; assay: qRT-PCR of hematopoietic transcriptional regulators; assay type: cell-based, human
Description: (§1) FIG. 9A. Non-adherent hematopoietic progenitor cells derived from hESCs differentiated in the presence of SR-1, TCDD, or DMSO controls were harvested at Day 6+5 and seeded at 50,000 cells/dish in a standard methylcellulose colony-forming unit assay (CFU). Colonies were counted for each treatment group following 2 weeks of culture and scored for the following morphological subsets: BFU-E: burst-forming unit-erythroid; CFU-E: colony-forming unit-erythroid; CFU-GM: colony-forming unit-granulocyte, macrophage, CFU-M: colony-forming unit-macrophage; CFU-GEMM: colony-forming unit-granulocyte, erythroid, macrophage, megakaryocyte. n=3, error bars represent SEM of the total number of colonies/50,000 cells seeded, *p<0.05 as assessed with one-way ANOVA+Tukey-Kramer multiple comparisons post-hoc test. FIG. 9B. Non-adherent hematopoietic progenitor cells derived from hESCs differentiated in the presence of SR-1, TCDD, or DMSO controls were harvested at Day 6+3, Day 6+6, and Day 6+9 time points and probed for gene expression by quantitative real-time PCR (qRT-PCR). For each gene, Ct values were normalized to GAPDH at each time point and data is presented as relative fold-change to DMSO treated controls. n=3, error bars represent SEM, *p<0.05, **p<0.01 using student's t-test.
Non-adherent cell fractions were harvested as previously described in the main text. Total RNA was harvested using the Qiashredder tissue homogenizer kit (Qiagen, Valencia, Calif.) with RNAeasy Mini Kit. RNA concentration and purity was assessed using a NanoDrop 2000 (ThermoFisher Scientific) spectrophotometer and subsequently revere transcribed with a SensiFAST cDNA Synthesis Kit (Bioline, Taunton, Mass.). qPCR was performed using the All-in-One qPCR Mix (GeneCopoeia, Rockville, Md.) and cDNA was used at 50 ng/uL per reaction for qRT-PCR using gene specific human primer pairs (Table 1). qPCR reactions were run on an StepOnePlus Real-Time PCR System thermocycler (ThermoFisher Scientific) in either technical duplicate or triplicate. Ct values were normalized to a GAPDH housekeeper for each sample. Data were then normalized relative to controls using the 2̂-(ΔΔCt) method.

[2] = tested on: hESC-derived non-adherent hematopoietic progenitor cells; assay: Hematopoietic colony-forming unit (CFU) assay (Example 2); assay type: cell-based, human; conditions: cells harvested at Day 6+5, 14 days in Methocult, n=3
Description: as §1, with “For each gene, Ct values were normalized to GAPDH at each time point and data is presented as relative fold-change to DMSO treated controls. n=3, error bars represent SEM, *p<0.05, **p<0.01 using student's t-test.” left out
Day 6+5 spin-EB non-adherent fractions were resuspended in IMDM. […] Plates were incubated for 14 days and subsequently counted and phenotypically scored using standard criteria (Kaufman et al. Proc. Natl. Acad. Sci. U.S.A. 2001; 98(19):10716-21).

SMILES	expression of GATA1, fold relative to DMSO controls ([1]; Day 6+3)	expression of GATA2, fold relative to DMSO controls ([1]; Day 6+3)	mean GATA2:GATA1 ([1]; Day 6+3, SR-1 treatment)	expression of CMYB ([1]; all time points)	total number of colonies / 50,000 cells seeded [2]	expression of GATA2, fold relative to DMSO controls ([1]; Day 6+6)	expression of PU.1 ([1]; each time point (Day 6+3, 6+6, 6+9))
CC(C)n1cnc2c(NCCc3ccc(O)cc3)nc(-c3csc4ccccc34)nc21 [SR-1, StemReginin-1]	2.58±0.40 fold	6.85±0.74 fold	2.67	significant increase	245.67±64.4 colonies		
Clc1cc2c(cc1Cl)Oc1cc(Cl)c(Cl)cc1O2 [TCDD, 2,3,7,8-tetrachlorodibenzo-p-dioxin]	0.31±0.08 fold				28.3±2.67 colonies	0.37±0.13 fold	reciprocal expression
